2 molecules from ChEMBL document CHEMBL1158281, “Montiporic acids A and B, cytotoxic and antimicrobial polyacetylene carboxylic acids from eggs of the scleractinian coral Montipora digitata” (J Nat Prod, 1996) can be followed below.

Converted amounts (≈) assume the structure as drawn. The source made the active and inactive calls. The rule behind the calls is not given here.

In experiment [1] the test system is P388. Put plainly: Cytotoxicity against mouse P388 cells. Type of experiment: functional, cell-based.
In experiment [2] the test system is Escherichia coli. Put plainly: Antibacterial activity against Escherichia coli. The experiment is classed as functional, organism-based.

As to `CCCCCCCC#CC#CCOCC(=O)O` [MONOTIPORIC ACID A], in experiment [1], the IC50 (in general, the concentration that gives 50% inhibition) is 5 mg/L (≈ 21.2 µM). The result in experiment [2] was Active.
In experiment [1], `C=CCCCCCCCC#CC#CCOCC(=O)O` [MONOTIPORIC ACID B] came in with an IC50 of 12 mg/L (≈ 45.7 µM). Besides, in experiment [2], the outcome was Active.
